# Measurements published in patent US9540299B2, “MTOR-independent activator of TFEB for autophagy enhancement and uses thereof” (Hong Kong Baptist University, priority 2015, dated 2017).
# Molecular target: T1, TFEB (Mus musculus, UniProt Q9R210)
# T1 construct: the expression and distribution of endogenous TFEB in N2a cells treated with curcumin and its analogs are determined; endogenous in cells; host or cells: N2a cells
# T1 sequence (Q9R210 1-475): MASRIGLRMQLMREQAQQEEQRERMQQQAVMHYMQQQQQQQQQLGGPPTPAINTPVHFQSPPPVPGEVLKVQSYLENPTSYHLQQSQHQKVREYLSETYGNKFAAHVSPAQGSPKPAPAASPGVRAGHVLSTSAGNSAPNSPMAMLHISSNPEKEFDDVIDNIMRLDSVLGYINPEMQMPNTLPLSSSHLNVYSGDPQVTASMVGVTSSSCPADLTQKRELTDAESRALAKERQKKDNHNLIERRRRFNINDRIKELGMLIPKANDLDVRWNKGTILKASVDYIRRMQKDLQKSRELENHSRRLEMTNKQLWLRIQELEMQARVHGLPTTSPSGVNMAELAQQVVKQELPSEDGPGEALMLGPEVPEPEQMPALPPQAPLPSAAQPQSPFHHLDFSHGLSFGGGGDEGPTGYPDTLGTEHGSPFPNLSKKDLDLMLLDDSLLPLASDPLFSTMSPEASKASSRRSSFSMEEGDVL
# Test: Expression and distribution of endogenous TFEB in N2a cells (immunostaining, western blot)
# Assay type: cell-based
# Conditions: not given
# Method: Cells were treated with curcumin (Cur, 10 μM), A2, B3 and C1 (1 μM) for 12 h. […] Data is quantified by ImageJ software and is presented as mean±SD of three replicates for each treatment conditions. At least 1000 cells are analyzed in each treatment group. *p<0.05 vs. the control (0.1% DMSO). FIG. 4C is a western blot showing the expression of endogenous TFEB. […] Data are presented as the mean±SD from three independent experiments. *p<0.05 vs. the control (0.1% DMSO). FIG. 4E is fluorescence images showing expression of 3×Flag-TFEB in Hela cells having treated with Cur (10 μM), A2, B3 and C1 (1 μM) for 12 h. Torin 1 (1 μM) treatment for 2 h is used as a positive control. Cells were fixed and stained with anti-Flag antibody. […] FIG. 4G is the western blot showing the expression of Flag-tagged TFEB in the cytosolic (Cyt.) and nuclear (Nuc.) fractions. ACTB and H3F3A (H3 histone, family 3A) are used as loading control of cytoplasmic and nuclear fraction, respectively. FIG. 4H is showing the relative intensity of TFEB in the cytosolic and nuclear fractions. Data are presented as the mean±SD from three independent experiments. *p<0.05 vs. the control (0.1% DMSO).
# N2a cells are treated with E2, E3 and E4 (1 μM) for 12 hours. Torin 1 (1 μM) treatment for 2 hours is used as a positive control. The cells are fixed and stained with TFEB antibody (green) and DAPI (blue) (FIG. 16A). TFEB translocate into nucleus are quantified. Quantification data (FIG. 16B) are presented as mean±SD of three replicates in a representative experiment. At least 500 cells are analyzed in each treatment group.
# N2a cells are treated with E2, E3, and E4 (1 μM) for 12 hours. Torin 1 (1 μM) treatment for 2 hours is used as a positive control. The expression of endogenous TFEB in the cytosolic (Cyt.) and nuclear (Nuc.) fractions are determined by western blotting (FIG. 17A) and quantified (FIG. 17B). TUBB (β-tubulin) and H3F3A (H3 histone, family 3A) are used as loading control of cytoplasmic and nuclear fraction respectively. Quantification data are presented as the mean±SD from three independent experiments. *p<0.05 vs. the control (0.1% DMSO).
# Cells are lysed on ice in 1× Lysis Buffer (9803, Life Technologies) with complete protease inhibitor mixture (04693124001, Roche Applied Science). Animal tissues are homogenized in nine volumes of ice-cold PBS supplemented with protease inhibitors. Cytosolic and nuclear fractions are isolated using protocols similar to those described previously. Anti-Flag or TFEB antibody is added to the whole cell lysates and Dynabeads® Protein G (10003D, Life Technologies) is used for immunoprecipitation. Proteins are separated by 10-15% SDS-PAGE, transferred, and blotted with the antibodies described. The blots are then incubated with secondary antibodies or the Clean-Blot IP Detection Reagent (21230, Thermo Scientific) at room temperature for 1 h. The protein signals are detected by ECL kit (32106, Pierce) and quantified using ImageJ software.
# Cells are seeded on coverslips placed in 24-well plates. After drug treatment, slices are fixed with 3.7% paraformaldehyde, permeabilized in 0.2% Triton X-100 and blocked with 5% BSA. After blocking, the slices are stained with anti-TFEB (1:200) or anti-Flag (1:500) antibodies overnight at 4° C. Alexa Fluor®488 (green) or Alexa Fluor®594 (red) secondary antibodies (1:500) are added for 1 h at room temperature. After nuclear staining with DAPI, the slices are mounted with FluorSave reagent (345789, Calbiochem). Cells are visualized using an Eclipse 80i fluorescence microscope (Nikon Instruments Inc.)
# Cells are lysed on ice in 1× Lysis Buffer (9803, Life Technologies) with complete protease inhibitor mixture (04693124001, Roche Applied Science) and phosphatase inhibitor (B15001, Biotool). Cytosolic and nuclear fractions are isolated using protocols similar to those described previously. Proteins are separated by 10-15% SDS-PAGE, transferred, and blotted with the antibodies described. […]
row,"activity to promote TFEB nucleus translocation, comparison among E series analogs",Compound
1,best activity,O=C(/C=C/c1ccccc1I)/C=C/c1ccccc1I [E4]

# Same assay, conditions: N2a cells, 1 μM, 12 hours
nuclear accumulation of endogenous TFEB by immunofluorescence compared to vehicle control,"nuclear translocation of endogenous TFEB, cytosolic and nuclear fractions by Western blots",Compound
striking nuclear accumulation,potently induce,O=C(/C=C/c1ccccc1Cl)/C=C/c1ccccc1Cl [E2]
striking nuclear accumulation,potently induce,O=C(/C=C/c1ccccc1Br)/C=C/c1ccccc1Br [E3]
striking nuclear accumulation,potently induce,O=C(/C=C/c1ccccc1I)/C=C/c1ccccc1I [E4]

# Same assay, conditions: N2a cells, 12 h; curcumin 10 μM, analogs 1 μM
nuclear translocation (distribution) of endogenous TFEB,total levels (expression) of endogenous TFEB,Compound
no effects,no effects,"O=C(/C=C/c1cccc(C(F)(F)F)c1)/C=C/c1cccc(C(F)(F)F)c1 [A2, 1,5-bis(3-(trifluoromethyl)phenyl)penta-1,4-dien-3-one]"
no effects,no effects,"O=C(/C=C/c1ccc(O)cc1)/C=C/c1ccc(O)cc1 [B3, 1,5-bis(4-hydroxyphenyl)penta-1,4-dien-3-one]"
no effects,no effects,"COc1cc(/C=C/C(=O)CC(=O)/C=C/c2ccc(O)c(OC)c2)ccc1O [curcumin, Curcumin, reference compound]"

Compound,nuclear translocation (distribution) of endogenous TFEB,total levels (expression) of endogenous TFEB
"COc1ccccc1/C=C/C(=O)/C=C/c1ccccc1OC [C1, 1,5-bis(2-methoxyphenyl)penta-1,4-dien-3-one]",promotes,increases
